Assays:
bone = test: treatment of mammals with polysulfated polysaccharides, effect on bone; type: in vivo
spinal fracture = settings: post-menopausal women; cited from earlier work

Compound: pentosan polysulfate
- effect on bone (bone fragility) (bone; high repeated dosages, mammals): causes bone fragility

Compound: NCCCC(O)(P(=O)(O)O)P(=O)(O)O [Fosamax, alendronate]
- reduction of risk of spinal fracture (spinal fracture): ~50%

Compound: calcium pentosan polysulfate
- occurrence or spread of osteoporosis (bone; low dosages producing blood levels of 0.01 to 100 micrograms per ml, low continuous or high pulsed therapy dose): reduces the occurrence or spread of osteoporosis

Reference: patent publication US6593310B1, “Treatment of osteoporosis” (Arthropharm Pty. Ltd., priority 2000, dated 2003)
